# Assay results reported in ChEMBL document CHEMBL4359833, “Philanthotoxin Analogues That Selectively Inhibit Ganglionic Nicotinic Acetylcholine Receptors with Exceptional Potency” (J Med Chem, 2019).
# Tests used:
# Assay type in all cases: cell-based
# [1] = target: T1, Neuronal acetylcholine receptor; alpha4/beta2 (Homo sapiens, UniProt P17787+P43681); experiment: Antagonist activity at alpha4beta2 nAChR (unknown origin) expressed in Xenopus laevis oocytes assessed as inhibition of Ach-induced channel activation at -100 mV holding potential treated for 1 min by two electrode voltage-clamp assay relative to PhTX-343 IC50
# [2] = target: T1, Neuronal acetylcholine receptor; alpha4/beta2; experiment: Antagonist activity at alpha4beta2 nAChR (unknown origin) expressed in Xenopus laevis oocytes assessed as inhibition of Ach-induced channel activation at -100 mV holding potential treated for 1 min by two electrode voltage-clamp assay
# [3] = target: T2, Neuronal acetylcholine receptor; alpha3/beta4 (Homo sapiens, UniProt P30926+P32297); experiment: Antagonist activity at alpha3beta4 nAChR (unknown origin) expressed in Xenopus laevis oocytes assessed as inhibition of Ach-induced channel activation at -100 mV holding potential treated for 1 min by two electrode voltage-clamp assay
# [4] = target: T2, Neuronal acetylcholine receptor; alpha3/beta4; experiment: Antagonist activity at alpha3beta4 nAChR (unknown origin) expressed in Xenopus laevis oocytes assessed as inhibition of Ach-induced channel activation at -100 mV holding potential treated for 1 min by two electrode voltage-clamp assay relative to PhTX-343 IC50
# Homo sapiens = species: Homo sapiens; experiment: Selectivity ratio of IC50 for alpha4beta2 nAChR (unknown origin) expressed in Xenopus laevis oocytes to IC50 for alpha3beta4 nAChR (unknown origin) expressed in Xenopus laevis oocytes
# T1 sequence (P17787 whole entry): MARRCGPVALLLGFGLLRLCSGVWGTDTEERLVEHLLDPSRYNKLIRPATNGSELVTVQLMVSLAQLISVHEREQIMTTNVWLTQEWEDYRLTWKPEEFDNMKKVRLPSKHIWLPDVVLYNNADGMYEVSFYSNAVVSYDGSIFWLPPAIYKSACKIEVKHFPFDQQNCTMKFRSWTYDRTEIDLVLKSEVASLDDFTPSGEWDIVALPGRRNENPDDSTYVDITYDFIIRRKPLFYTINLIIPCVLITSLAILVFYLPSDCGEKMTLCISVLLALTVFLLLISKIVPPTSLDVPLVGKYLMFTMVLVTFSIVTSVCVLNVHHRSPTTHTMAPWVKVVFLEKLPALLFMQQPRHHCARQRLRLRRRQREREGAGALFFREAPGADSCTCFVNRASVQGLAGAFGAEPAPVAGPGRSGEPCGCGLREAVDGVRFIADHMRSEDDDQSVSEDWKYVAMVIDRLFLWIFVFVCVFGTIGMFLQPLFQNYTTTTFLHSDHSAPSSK
# T1 sequence (P43681 whole entry): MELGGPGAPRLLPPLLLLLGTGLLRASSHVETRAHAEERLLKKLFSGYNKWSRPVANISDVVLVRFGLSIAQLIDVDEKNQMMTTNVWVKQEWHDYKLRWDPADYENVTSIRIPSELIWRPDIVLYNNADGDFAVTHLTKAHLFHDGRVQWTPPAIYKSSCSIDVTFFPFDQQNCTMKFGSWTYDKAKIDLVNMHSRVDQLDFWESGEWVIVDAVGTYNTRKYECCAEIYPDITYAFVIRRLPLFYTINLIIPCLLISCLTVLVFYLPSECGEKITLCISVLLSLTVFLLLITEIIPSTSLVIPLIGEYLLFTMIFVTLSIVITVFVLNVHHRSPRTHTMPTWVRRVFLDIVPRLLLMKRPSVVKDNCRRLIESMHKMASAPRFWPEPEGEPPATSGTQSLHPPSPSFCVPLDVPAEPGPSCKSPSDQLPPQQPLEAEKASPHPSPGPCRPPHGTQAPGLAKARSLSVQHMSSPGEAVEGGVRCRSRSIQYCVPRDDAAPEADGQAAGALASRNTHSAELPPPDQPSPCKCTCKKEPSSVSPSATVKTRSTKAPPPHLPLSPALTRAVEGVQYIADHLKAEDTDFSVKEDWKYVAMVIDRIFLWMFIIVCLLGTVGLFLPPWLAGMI
# T2 sequence (P30926 whole entry): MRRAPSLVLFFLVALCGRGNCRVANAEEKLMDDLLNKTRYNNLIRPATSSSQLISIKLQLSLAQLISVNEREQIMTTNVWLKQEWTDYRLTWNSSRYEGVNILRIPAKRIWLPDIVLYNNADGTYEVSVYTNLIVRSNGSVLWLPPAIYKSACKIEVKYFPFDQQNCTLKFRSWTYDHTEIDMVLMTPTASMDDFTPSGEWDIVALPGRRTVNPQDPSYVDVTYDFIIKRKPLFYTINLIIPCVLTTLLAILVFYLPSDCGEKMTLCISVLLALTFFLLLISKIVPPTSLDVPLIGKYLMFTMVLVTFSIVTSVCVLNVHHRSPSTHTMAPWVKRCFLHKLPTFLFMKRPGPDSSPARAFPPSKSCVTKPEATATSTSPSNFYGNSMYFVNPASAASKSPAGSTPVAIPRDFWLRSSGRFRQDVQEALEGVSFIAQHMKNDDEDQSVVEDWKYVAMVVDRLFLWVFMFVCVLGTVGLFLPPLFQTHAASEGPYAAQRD
# T2 sequence (P32297 whole entry): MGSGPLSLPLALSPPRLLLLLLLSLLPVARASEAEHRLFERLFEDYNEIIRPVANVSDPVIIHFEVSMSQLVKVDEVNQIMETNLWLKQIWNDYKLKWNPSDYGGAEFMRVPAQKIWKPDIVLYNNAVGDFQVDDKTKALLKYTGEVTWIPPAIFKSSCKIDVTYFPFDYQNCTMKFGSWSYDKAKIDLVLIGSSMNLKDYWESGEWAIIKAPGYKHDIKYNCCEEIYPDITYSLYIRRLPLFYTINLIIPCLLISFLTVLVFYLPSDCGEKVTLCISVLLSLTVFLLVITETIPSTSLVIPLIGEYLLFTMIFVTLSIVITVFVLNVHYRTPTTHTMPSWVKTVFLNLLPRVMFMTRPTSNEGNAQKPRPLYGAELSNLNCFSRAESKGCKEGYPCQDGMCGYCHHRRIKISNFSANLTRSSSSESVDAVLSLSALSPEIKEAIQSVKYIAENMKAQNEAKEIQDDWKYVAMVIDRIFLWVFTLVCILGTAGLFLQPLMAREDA
compound,measurement,setting,value
NCCCNCCCCNCCCNC(=O)[C@H](CC1CCCCC1)NC(=O)/C=C/c1ccccc1,Ratio IC50,[1],6.6
same,IC50,[2],12.1 nM
same,IC50,[3],0.35 nM
same,Ratio IC50,[4],21.9
same,Ratio IC50,Homo sapiens,34.6
NCCCNCCCCNCCCNC(=O)[C@H](Cc1ccc(O)cc1)NC(=O)C1CCCC1,Ratio IC50,[1],3.6
same,IC50,[2],22.5 nM
same,IC50,[3],0.57 nM
same,Ratio IC50,[4],13.4
same,Ratio IC50,Homo sapiens,39.5
NCCCNCCCCNCCCNC(=O)[C@H](CC1CCCCC1)NC(=O)C1CCC1,Ratio IC50,[1],3.9
same,IC50,[2],20.8 nM
same,IC50,[3],1.07 nM
same,Ratio IC50,[4],7.1
same,Ratio IC50,Homo sapiens,19.4
CCCC(=O)N[C@@H](Cc1ccc(O)cc1)C(=O)NCCCNC[C@@H]1C[C@H]1CNCCCN,Ratio IC50,[1],1.8
same,IC50,[2],44.3 nM
same,IC50,[3],0.92 nM
same,Ratio IC50,[4],8.3
same,Ratio IC50,Homo sapiens,48.2
NCCCNCCCCNCCCNC(=O)[C@H](CC1CCCCC1)NC(=O)CC1CC2CCC1C2 (stereo partly drawn),Ratio IC50,[1],3.1
same,IC50,[2],25.6 nM
same,IC50,[3],0.95 nM
same,Ratio IC50,[4],8.1
same,Ratio IC50,Homo sapiens,26.9
NCCCNCCCCNCCCNC(=O)[C@H](CC1CCCCC1)NC(=O)C1CCCCC1,Ratio IC50,[1],2.6
same,IC50,[2],31.4 nM
same,IC50,[3],2.19 nM
same,Ratio IC50,[4],3.5
same,Ratio IC50,Homo sapiens,14.3
NCCCNCCCCNCCCNC(=O)[C@H](CC1CCCCC1)NC(=O)C1CCCCCC1,Ratio IC50,[1],2.8
same,IC50,[2],28.2 nM
same,IC50,[3],0.55 nM
same,Ratio IC50,[4],13.9
same,Ratio IC50,Homo sapiens,51.3
CCCC(=O)N[C@@H](CC1CCCCC1)C(=O)NCCCNCCCCNCCCN,Ratio IC50,[1],31.1
same,IC50,[2],2.58 nM
same,IC50,[3],2.62 nM
same,Ratio IC50,[4],2.9
same,Ratio IC50,Homo sapiens,1
NCCCNCCCCNCCCNC(=O)[C@H](CC1CCCCC1)NC(=O)Cc1cccc2ccccc12,Ratio IC50,[1],5.5
same,IC50,[2],14.6 nM
same,IC50,[3],0.16 nM
same,Ratio IC50,[4],47.8
same,Ratio IC50,Homo sapiens,91.3
NCCCNCCCCNCCCNC(=O)[C@H](CC1CCCCC1)NC(=O)c1ccc(-c2ccccc2)cc1,Ratio IC50,[1],3.1
same,IC50,[2],25.8 nM
same,IC50,[3],2.83 nM
same,Ratio IC50,[4],2.7
same,Ratio IC50,Homo sapiens,9.1
NCCCNCCCCNCCCNC(=O)[C@H](CC1CCCCC1)NC(=O)C1CC1,Ratio IC50,[1],0.7
same,IC50,[2],112 nM
same,IC50,[3],2.63 nM
same,Ratio IC50,[4],2.9
same,Ratio IC50,Homo sapiens,42.6
CCCC(=O)N[C@@H](Cc1ccc(O)cc1)C(=O)NCCCNC[C@H]1C[C@H]1CNCCCN,Ratio IC50,[1],1.7
same,IC50,[2],47.4 nM
same,IC50,[3],1.44 nM
same,Ratio IC50,[4],5.3
same,Ratio IC50,Homo sapiens,32.9
NCCCNCCCCNCCCNC(=O)[C@H](CC1CCCCC1)NC(=O)C1CCCC1,Ratio IC50,[1],14.8
same,IC50,[2],5.43 nM
same,IC50,[3],0.65 nM
same,Ratio IC50,[4],11.8
same,Ratio IC50,Homo sapiens,8.4
NCCCNCCCCNCCCNC(=O)[C@H](Cc1ccc(O)cc1)NC(=O)C1CCCCC1,Ratio IC50,[1],2.2
same,IC50,[2],36.6 nM
same,IC50,[3],0.46 nM
same,Ratio IC50,[4],16.6
same,Ratio IC50,Homo sapiens,79.6
CCCC(=O)N[C@@H](Cc1ccc(O)cc1)C(=O)NCCCNCCCCNCCCN [PHILANTHOTOXIN 343],IC50,[2],80.2 nM
same,IC50,[3],7.65 nM
same,Ratio IC50,Homo sapiens,10.5
CCCC(=O)N[C@@H](CCc1ccccc1)C(=O)NCCCNCCCCNCCCN,Ratio IC50,[1],3.9
same,IC50,[2],20.8 nM
same,IC50,[3],1.74 nM
same,Ratio IC50,[4],4.4
same,Ratio IC50,Homo sapiens,12
CCCC(=O)N[C@@H](Cc1ccccc1)C(=O)NCCCNCCCCNCCCN,Ratio IC50,[1],2.9
same,IC50,[2],27.8 nM
same,IC50,[3],0.93 nM
same,Ratio IC50,[4],8.2
same,Ratio IC50,Homo sapiens,29.9
NCCCNCCCCNCCCNC(=O)[C@H](CC1CCCCC1)NC(=O)c1ccccc1,Ratio IC50,[1],3.7
same,IC50,[2],21.4 nM
same,IC50,[3],0.37 nM
same,Ratio IC50,[4],20.7
same,Ratio IC50,Homo sapiens,57.8
